Laboratory results from article PMC9516332 (Frontiers in Oncology, 2022).
Read-outs that look alike come from different tables or passages of the source.

System: 134 cancer cell lines
Experiment: Cell viability assay (ATPlite, 72 hours), IC50 on cancer cell line panel

IC50 (Homo sapiens, MOLT-4, read-out: IC50 in cell proliferation assay, MOLT-4 cell line): 3760 nM
IC50 (Homo sapiens, MV4-11, read-out: IC50 in cell proliferation assay, MV4-11 cell line (FLT3 ITD)): 1230 nM
IC50 (Homo sapiens, MeWo, read-out: IC50 in cell proliferation assay, MeWo cell line): 3200 nM
IC50 (Homo sapiens, NCCIT, read-out: IC50 in cell proliferation assay, NCC-IT cell line): 3110 nM
IC50 (Homo sapiens, NCI-H82, read-out: IC50 in cell proliferation assay, cell line NCI-H82): 1570 nM
IC50 (Homo sapiens, NCI-H460, read-out: IC50 in cell proliferation assay, NCI-H460 cell line): 3160 nM
IC50 (Homo sapiens, NCI-H661, read-out: IC50 in cell proliferation assay, NCI-H661 cell line): 3470 nM
IC50 (Homo sapiens, NCI-H716, read-out: IC50 in cell proliferation assay, cell line NCI-H716 (FGFR2-COL14A1)): 1550 nM
IC50 (Homo sapiens, NCI-H1650, read-out: IC50 in cell proliferation assay, NCI-H1650 cell line (EGFR exon19del)): 3380 nM
IC50 (Homo sapiens, NCI-H1975, read-out: IC50 in cell proliferation assay, NCI-H1975 cell line (EGFR p.L858R + p.T790M)): 1920 nM
IC50 (Homo sapiens, NCI-H2228, read-out: IC50 in cell proliferation assay, NCI-H2228 cell line (EML4-ALK)): 38 nM
IC50 (Homo sapiens, OVCAR-3, read-out: IC50 in cell proliferation assay, cell line OVCAR-3): 5140 nM
IC50 (Homo sapiens, PFSK-1, read-out: IC50 in cell proliferation assay, cell line PFSK-1): 1540 nM
IC50 (Homo sapiens, RL95-2, read-out: IC50 in cell proliferation assay, cell line RL95-2 (EGFR p.A289V)): 1760 nM
IC50 (Homo sapiens, RPMI-7951, read-out: IC50 in cell proliferation assay, cell line RPMI-7951 (BRAF p.V600E)): 3680 nM
IC50 (Homo sapiens, RS4-11, read-out: IC50 in cell proliferation assay, cell line RS4;11): 1080 nM
IC50 (Homo sapiens, Rec1, read-out: IC50 in cell proliferation assay, cell line REC-1): 2210 nM
IC50 (Homo sapiens, SHP77, read-out: IC50 in cell proliferation assay, cell line SHP-77): 3400 nM
IC50 (Homo sapiens, SK-BR-3, read-out: IC50 in cell proliferation assay, cell line SK-BR-3 (ERBB2 amplification)): 3910 nM
IC50 (Homo sapiens, SK-N-AS, read-out: IC50 in cell proliferation assay, cell line SK-N-AS): 2090 nM
IC50 (Homo sapiens, SK-N-FI, read-out: IC50 in cell proliferation assay, cell line SK-N-FI): 537 nM
IC50 (Homo sapiens, SK-N-MC, read-out: IC50 in cell proliferation assay, cell line SK-N-MC): 709 nM
IC50 (Homo sapiens, SK-N-SH, read-out: IC50 in cell proliferation assay, cell line SK-N-SH (ALK p.F1174L)): 875 nM
IC50 (Homo sapiens, SNU-5, read-out: IC50 in cell proliferation assay, cell line SNU-5 (MET amplification)): 3870 nM
IC50 (Homo sapiens, SNU-16, read-out: IC50 in cell proliferation assay, cell line SNU-16 (FGFR2 amplification)): 3800 nM
IC50 (Homo sapiens, SNU-C2B, read-out: IC50 in cell proliferation assay, cell line SNU-C2B (EGFR p.R165Q)): 2540 nM
IC50 (Homo sapiens, SU-DHL-1, read-out: IC50 in cell proliferation assay, cell line SU-DHL-1 (NPM1-ALK)): 192 nM
IC50 (Homo sapiens, SU-DHL-6, read-out: IC50 in cell proliferation assay, cell line SU-DHL-6): 2950 nM
IC50 (Homo sapiens, SUP-T1, read-out: IC50 in cell proliferation assay, cell line SUP-T1): 3500 nM
IC50 (Homo sapiens, SW48, read-out: IC50 in cell proliferation assay, cell line SW48 (EGFR p.G719S)): 1290 nM
IC50 (Homo sapiens, SW480, read-out: IC50 in cell proliferation assay, cell line SW480): 2440 nM
IC50 (Homo sapiens, SW626, read-out: IC50 in cell proliferation assay, cell line SW626): 3430 nM
IC50 (Homo sapiens, SW780, read-out: IC50 in cell proliferation assay, cell line SW780 (FGFR3-BAIAP2L1)): 2070 nM
IC50 (Homo sapiens, SW837, read-out: IC50 in cell proliferation assay, cell line SW837): 2940 nM
IC50 (Homo sapiens, SW872, read-out: IC50 in cell proliferation assay, cell line SW872 (BRAF p.V600E)): 2780 nM
IC50 (Homo sapiens, SW900, read-out: IC50 in cell proliferation assay, cell line SW900): 2340 nM
IC50 (Homo sapiens, SW948, read-out: IC50 in cell proliferation assay, cell line SW948): 2280 nM
IC50 (Homo sapiens, SW982, read-out: IC50 in cell proliferation assay, cell line SW982 (BRAF p.V600E)): 4150 nM
IC50 (Homo sapiens, SW-620, read-out: IC50 in cell proliferation assay, cell line SW620): 1560 nM
IC50 (Homo sapiens, T98G, read-out: IC50 in cell proliferation assay, cell line T98G): 4700 nM
IC50 (Homo sapiens, TCC-SUP, read-out: IC50 in cell proliferation assay, cell line TCCSUP): 3820 nM
IC50 (Homo sapiens, THP-1, read-out: IC50 in cell proliferation assay, cell line THP-1): 4760 nM
IC50 (Homo sapiens, U2OS, read-out: IC50 in cell proliferation assay, cell line U2OS): 3860 nM
IC50 (Homo sapiens, U-87 MG, read-out: IC50 in cell proliferation assay, cell line U-87MG ATCC): 4440 nM
IC50 (Homo sapiens, U-118-MG, read-out: IC50 in cell proliferation assay, cell line U-118MG): 3850 nM
IC50 (Homo sapiens, UMUC3, read-out: IC50 in cell proliferation assay, cell line UM-UC-3): 2570 nM
IC50 (Hs766T, read-out: IC50 in cell proliferation assay, Hs 766T cell line): 3520 nM
IC50 (L-82, read-out: IC50 in cell proliferation assay, L-82 cell line (NPM1-ALK)): 33 nM
IC50 (Rh30, read-out: IC50 in cell proliferation assay, cell line Rh30): 1010 nM
IC50 (read-out: IC50 in cell proliferation assay, 11-18 cell line (EGFR p.L858R)): 2090 nM
IC50 (read-out: IC50 in cell proliferation assay, Hs 852.T cell line): 1870 nM
IC50 (read-out: IC50 in cell proliferation assay, JAR cell line): 3580 nM
IC50 (read-out: IC50 in cell proliferation assay, cell line 5637): 2490 nM
IC50 (read-out: IC50 in cell proliferation assay, cell line A-388): 3640 nM
IC50 (read-out: IC50 in cell proliferation assay, cell line DB): 3990 nM
IC50 (read-out: IC50 in cell proliferation assay, cell line DEL (NPM1-ALK)): 62 nM
IC50 (read-out: IC50 in cell proliferation assay, cell line ES-2 (BRAF p.V600E)): 2810 nM
IC50 (read-out: IC50 in cell proliferation assay, cell line PA-1): 2080 nM
IC50 (read-out: IC50 in cell proliferation assay, cell line PC-3): 4060 nM
IC50 (read-out: IC50 in cell proliferation assay, cell line RD): 1710 nM
IC50 (read-out: IC50 in cell proliferation assay, cell line RKO (BRAF p.V600E)): 1630 nM
IC50 (read-out: IC50 in cell proliferation assay, cell line RL): 4060 nM
IC50 (read-out: IC50 in cell proliferation assay, cell line RT-4 (FGFR3-TACC3)): 4050 nM
IC50 (read-out: IC50 in cell proliferation assay, cell line SR (NPM1-ALK)): 200 nM
IC50 (read-out: IC50 in cell proliferation assay, cell line T24): 4040 nM
IC50 (read-out: IC50 in cell proliferation assay, cell line TT (RET p.C634W)): 3830 nM
IC50 (read-out: IC50 in cell proliferation assay, cell line VA-ES-BJ): 4250 nM
SMILES: Cc1cc(Nc2ncc(Cl)c(Nc3ccccc3S(=O)(=O)C(C)C)n2)c(OC(C)C)cc1C1CCNCC1 [ceritinib]
